Reference: US12571052B2, “Immunomodulatory RNA” (THE TRUSTEES OF THE UNIVERSITY OF PENNSYLVANIA, priority 2017, dated 2026)

What was measured:
[1] = test system: 1833 ISG-R breast cancer xenografts; assay: Intratumoral injection into subcutaneous 1833 xenografts; type: in vivo, athymic nude mice
Protocol: In Vivo Mouse Studies. For exosome injection studies, 1×10^6 1833 breast cancer cells were injected with Matrigel (Corning) into the flanks of 6-8 week old athymic nude mice and 10 μg of mono- or co-culture exosomes were directly injected into the tumors 3 times a week. For RNA injection studies, 50 ng of 7SL or GAPDH300 RNA encapsulated into RNAiMax liposomes were directly injected into the tumors 3 times a week. Subcutaneous tumor growth was measured by caliper. For lung colonization studies, 2×10^5 luciferase-labeled 4175 breast cancer cells were injected in the tail vein. Injections were confirmed by immediate imaging using a Xenogen IVIS 100 system. Serum was isolated from mice by cardiac puncture.

B16-F10 tumor cells [2] = assay: B16-F10/MEF co-implantation, tumor growth and survival under checkpoint blockade; type: in vivo, C57BL/6 mice; conditions: MYC activated MEFs vs MEFs co-expressing SRP9/14; anti-CTLA-4 or anti-PD-1
Protocol: Wild type (WT) C57BL/6 mice were injected with 5×10^4 B16-F10 tumor cells subcutaneously in the flank with 5×10^4 MYC activated mouse embryonic fibroblasts (MEFs) or MYC activated MEFs co-expressing SRP9/14. MYC activation is inducible with 4-OHT and results in the secretion of exosomes containing unshielded 7SL1 RNA, while co-expression of SRP9/14 ensures the 7SL1 RNA remains relatively shielded, allowing measurement of the stimulatory capacity specifically of the unshielded form (Nabet B Y, et al. Cell. 2017; 170 (2): 352-366.e13). Mice were subsequently treated with the anti-CTLA-4 or anti-PD-1 antibody (or not), and then tumor growth was monitored by caliper. Endpoint criterion was considered a tumor measurement of 1.5 cm in any direction.
Tumors were implanted as described in FIGS. 25A-25B and treated with CSF1R inhibitor BLZ945 (Novartis) every 2 days for 2 weeks starting at day 0 to prevent M2 polarization of infiltrating myeloid cells. Mice were additionally treated with anti-CTLA4 (FIG. 27A) or anti-CTLA4 and anti-PD1 (FIGS. 27B and 27C) on days 5, 8, and 11. Tumor growth was monitored by caliper.

B16-F10 tumor cells [3] = assay: B16-F10/MEF co-implantation, tumor immune populations by flow cytometry; type: in vivo, C57BL/6 mice; conditions: for myeloid infiltration (macrophages, MDSCs) into the tumor microenvironment: tumors harvested 13 days later
Protocol: Mice were implanted with tumors as described FIGS. 25A-25B. Tumors were harvested 13 days later and assessed for infiltration of macrophages or myeloid derived suppressor cells (MDSCs). Macrophages are considered Lin−, F4/80+, and CD11b+ cells. MDSCs are considered Lin−, F4/80−, CD11c−, CD11b+, and Ly6C+ cells. Tumors were treated with anti-CTLA4 blocking antibody (FIG. 26D) as described in FIGS. 25A and 25B, and tumors were harvested at d15 to measure M2 polarization of macrophages as marked by CD206.
Furthermore, mice were implanted with the same tumors and subsequently treated with the CSF1R inhibitor BLZ945. Polarization of macrophages and frequency of CD103+DCs were tested.
In addition, mice were implanted with tumors and treated with anti-CTLA4+/−CSF1Ri BLZ945. Tumors were harvested 13 days later and immune populations were assessed using an unbiased clustering of flow cytometry data.
Mice were implanted with B16-F10 tumor cells mixed 1:1 with MEFs or MEFs co-expressing SRP9/14 (FIG. 35B). Tumors were harvested 2 weeks post-injection and analyzed for immune cell populations. Unshielded RN7SL1 increased the frequency of dendritic cells, the percentage of CD103+ dendritic cells, the percentage of CD69+CD8+ T cells, and the percentage of PD1+CD8+ T cells in tumors (FIG. 35C). […] Without wishing to be bound by theory, a CSF1R inhibitor blocks M2 polarization and may synergize with unshielded RN7SL1.

[4] = tumors harvested 2 weeks post-injection

RN7SL1: Human RN7SL1 (7SL, srpRNA) RNA, 5'ppp, in vitro transcribed or secreted unshielded in exosomes; SEQ ID NO: 2
tumor growth ([1]; 50 ng liposome-encapsulated RNA intratumorally 3 times a week, RIG-I WT tumors): enhance tumor growth in a RIG-I-dependent manner
tumor growth ([1]; 50 ng liposome-encapsulated RNA intratumorally, RIG-I KO tumors): no effect was observed
ISG expression in tumors ([1]; tumors expressing WT RIG-I, human specific primers): an increase in ISG expression
response to checkpoint blockade therapy (B16-F10 tumor cells [2]): does not significantly impact response to anti-CTLA-4 or anti-PD-1 therapy
T cell activation (B16-F10 tumor cells [3]; dependent on MyD88): enhanced T cell activation
percentage of CD69+CD8+ T cells (B16-F10 tumor cells [3]; [4]): increased
percentage of CD103+ dendritic cells (B16-F10 tumor cells [3]; [4]): increased
percentage of PD1+CD8+ T cells (B16-F10 tumor cells [3]; [4]): increased
percentages of macrophages and MDSCs in CD45+ cells (B16-F10 tumor cells [3]; [4]): also increased
frequency of dendritic cells in tumors (B16-F10 tumor cells [3]; tumors harvested 2 weeks post-injection, listed as Unshielded RN7SL1): increased
frequency of dendritic cells in tumors (B16-F10 tumor cells [3]; tumors harvested 2 weeks post-injection, listed as unshielded 7SL1): increased the frequency of DCs in vivo
myeloid infiltration (macrophages, MDSCs) into the tumor microenvironment (B16-F10 tumor cells [3]): triggered the infiltration of macrophages and MDSCs into the tumor microenvironment
myeloid infiltration (macrophages, MDSCs) into the tumor microenvironment (B16-F10 tumor cells [3]; listed as unshielded 7SL): drives myeloid infiltration into the tumor microenvironment
